Reference: US8614222B2, “Methods of preventing and treating low bone mass diseases” (The Trustees of Columbia University in the City of New York, priority 2008, dated 2013)

Legend:
Format in all cases: in vivo
[1] = system: peripheral serotonin; test: Peripheral serotonin levels in wild-type mice (Example 11); conditions: 5 mice per compound
Protocol: Serotonin serum levels were quantified using immunoassay kits from Fitzgerald (Serotonin) and serotonin levels in the different regions of the brain were quantified by HPLC method as described previously (Mann et al., 1992, Arch. Gen. Psychiatry 49:442-446).
The following three compounds were tested for their ability to effect peripheral serotonin levels in wild-type mice:
Also tested as a negative control was vehicle alone. Each compound as well as vehicle was administered to 5 mice and the resulting peripheral serotonin levels were as follows: […]

[2] = system: brain serotonin; test: Brain serotonin content in wild-type mice (HPLC); conditions: WT mice, 250 mg/kg orally
Protocol: FIG. 15. HPLC analysis of serotonin content in the brain of wild-type mice that received vehicle or LP-533,401 (250 mg/kg, orally) for 1 day.
(§1) Blood samples were collected from mice and rats through cardiac puncture under isoflurane anesthesia, kept on ice for 5 min, and centrifuged at 13,000 rpm for 10 min at 4° C. Serum samples were stored at −80° C. until hormonal analyses were performed. Serum serotonin levels were quantified by ELISA (Serotonin kit, Fitzgerald) while serotonin levels in brain regions were quantified by HPLC as described previously (Mann et al., 1992, Arch. Gen. Psychiatry 49:442-446). Serum levels of total deoxypyridinoline (DPD) cross-links was measured using the Merta tDPD kit (Quidel corp. Sandiago, Calif.) and Osteocalcin using Rat and Mouse Ocn IRMA kit.

[3] = system: ovariectomized mice; test: Bone histomorphometry in ovariectomized mice, preventive and curative regimen
Protocol: Six-week-old wild-type virgin female mice were purchased from the Jackson Laboratories and subjected to either bilateral ovariectomy or a sham operation after a few days of acclimatization to the animal facility post-arrival. Ovariectomy was performed under isofluorane anesthesia through dorsal, subrenal incision. In the first experiment, mice were treated from day 1 post-ovariectomy for 4 weeks with LP-533,401 (1, 10, 100 or 250 mg/kg/day) or vehicle. In the second experiment, mice were treated for 4 weeks from 2 to 6-weeks post-ovariectomy with LP-533,401 (250 mg/kg/day) or vehicle. […] LP-533,401 was dissolved in polyethylene glycol:5% dextrose (40:60) and given daily by gavage at the doses indicated. Animals were observed daily for any behavioral abnormalities. Mice were sacrificed at the end of the experimental regimen and processed for the skeletal and physiological analysis.
Bone histomorphometry was performed as previously described (Duey et al., 2000, Cell 100:197-207; Takeda et al., 2002, Cell 111:305-317; Parfitt et al., 1987, J. Bone Miner. Res. 2:595-610). Briefly, lumbar vertebrae were dissected, fixed for 24 hr in 10% formalin, dehydrated in graded ethanol series, and embedded in methyl methacrylate resin according to standard protocols (Parfitt et al., 1987, J. Bone Miner. Res. 2:595-610). Von Kossa/Von Gieson staining was performed using 7 μm sections for bone volume over tissue volume (BV/TV) measurement. Bone formation rate (BFR) was analyzed by the calcein double-labeling method (Ducy et al., 2000, Cell 100:197-207). Calcein (Sigma Chemical Co., St. Louis, Mo.) was dissolved in calcein buffer (0.15 M NaCl, 2% NaHCO3) and injected twice at 0.125 mg/g body weight on day 1 and 4, and then mice were killed on day 6. Unstained 4 μm sections were used for bone formation rate (BFR) measurements. For the analysis of parameters of osteoblasts and osteoclasts, 4 μm sections were stained with toluidine blue and tartrate-resistant acid phosphatase (TRAP), respectively (2). Histomorphometric analyses were performed using the Osteomeasure Analysis System (Osteometrics, Atlanta, Ga.).
as §1

[4] = system: brain serotonin; test: Brain serotonin content in ovariectomized mice; conditions: OVX mice
Protocol: Six-week-old wild-type virgin female mice were purchased from the Jackson Laboratories and subjected to either bilateral ovariectomy or a sham operation after a few days of acclimatization to the animal facility post-arrival. Ovariectomy was performed under isofluorane anesthesia through dorsal, subrenal incision. In the first experiment, mice were treated from day 1 post-ovariectomy for 4 weeks with LP-533,401 (1, 10, 100 or 250 mg/kg/day) or vehicle. In the second experiment, mice were treated for 4 weeks from 2 to 6-weeks post-ovariectomy with LP-533,401 (250 mg/kg/day) or vehicle. In the third set of experiments, mice were treated for 6 weeks from 6 to 12-weeks post-ovariectomy with LP-533,401 (250 mg/kg/day) or vehicle. […]
as §1, with “Serum samples were stored at −80° C. until hormonal analyses were performed.” left out

[5] = system: ovariectomized mice; test: Gastrointestinal homeostasis and blood coagulation in ovariectomized mice; conditions: OVX mice, 6 weeks
[6] = OVX mice, 250 mg/kg/day for 4 weeks from week 2 post-ovariectomy
[7] = OVX mice, day 1 to 28 post-ovariectomy

Nc1nc(OC(c2ccc(-c3cccc(F)c3)cc2)C(F)(F)F)cc(-c2ccc(C[C@H](N)C(=O)O)cc2)n1 (stereo partly drawn) [LP-533401, (2S)-2-amino-3-(4-(2-amino-6-(2,2,2-trifluoro-1-(3′-fluorobiphenyl-4-yl)ethoxy)pyrimidin-4-yl)phenyl)propanoic acid]
Peripheral serotonin (ng/ml) (mean ± SEM) [1]: 88.56 ± 12.93 ng/mL | brain serotonin content [2]: no change | bone mass versus sham-operated mice ([3]; OVX mice, 25 mg/kg/day for 6 weeks from week 6 post-ovariectomy): similar | bone mass [3, 6]: normalized | bone resorption parameters [3, 6]: increased | bone mass versus sham-operated mice ([3]; OVX mice, 100 or 250 mg/kg/day for 6 weeks from week 6 post-ovariectomy): significantly higher | bone mass versus vehicle-treated ovariectomized mice ([3]; OVX mice, 250, 100 or 10 mg/kg once daily, day 1 to 28 post-ovariectomy): higher | Cyclin D1 expression in the bones [3, 7]: increase | bone formation rate [3, 7]: major increase | osteoblast numbers [3, 7]: major increase | osteocalcin serum levels [3, 7]: major increase | brain serotonin content ([4]; 250 mg/kg/day for 4 weeks from week 2 post-ovariectomy): unaffected | brain serotonin content ([4]; day 1 to 28 post-ovariectomy): unaffected | coagulation rates versus vehicle [5]: similar | colonic mobility ([5]; up to 250 mg/kg/day): None of these parameters were affected | gastric emptying ([5]; up to 250 mg/kg/day): None of these parameters were affected | total gastrointestinal transit ([5]; up to 250 mg/kg/day): None of these parameters were affected
